From patent publication US7700584B2 (Hangzhou Minsheng Pharmaceuticals Co., Ltd., priority 2004, dated 2010)
Values after ≈ are worked out from the molar mass of the structure shown. Like-named read-outs stand apart in the source and are kept apart here.

How the values were obtained:
[1] = tested on: Hela human cervical carcinoma; assay: In vitro inhibition rate to tumor cells (MTT), Hela; assay type: cell-based; details: 50 μg/ml; for inhibition at 50 µg/mL: Homo sapiens, HeLa, read-out: inhibition rate, Results (%) Hela
[2] = tested on: Bel-7402 human hepatic carcinoma; assay: In vitro inhibition rate to tumor cells (MTT), Bel-7402; assay type: cell-based; details: for inhibition rate, Results (%) Bel-7402: 50 μg/ml; for inhibition at 50 µg/mL: Homo sapiens, Bel-7402, 50 μg/ml, read-out: inhibition rate, Results (%) Bel-7402
[3] = tested on: U-937 human histocytic lymphoma; assay: In vitro inhibition rate to tumor cells (MTT), U-937; assay type: cell-based; details: for inhibition rate, Results (%) U-937: 50 μg/ml; for inhibition at 50 µg/mL: Homo sapiens, U-937, 50 μg/ml, read-out: inhibition rate, Results (%) U-937
[4] = tested on: U-937 human histocytic lymphoma; assay: In vitro anti-tumor IC50 (MTT), U-937; assay type: cell-based; details: Table 4
Description: (§1) (1) Single cell suspension was seeded into 96-well plates (the cells was diluted in the PRMI-1640 minimum medium to 3×10^4 cells/ml, […] diluted cells/well). […] The experiments were performed in quadruplicate.
(§2) (2) The medium was removed. Solutions of the anti-tumor agents (50 compounds) were prepared in a freshly prepared medium at serial concentrations. […] of the solution was added into each well. Incubation was continued for 48 hours.
(§3) (3) 20 ug of 2 mg/ml MTT was added into each well, and incubated for 4 hours.
(§4) (4) The medium was removed from the well. The microplates were swiftly turned down to throw-off the medium. […] of DMSO was added into each well, and vortexed at room temperature for 10 minutes.
(§5) (5) OD value (λ=570 nm) was measured with an Enzyme-Linked Detector.
(§6) (6) The graph of cell vitality was plotted, and IC50 was calculated.

[5] = tested on: MCF-7 human mammary adenocarcinoma; assay: In vitro inhibition rate to tumor cells (MTT), MCF-7; assay type: cell-based; details: for inhibition rate, Results (%) MCF-7: 50 μg/ml; for inhibition at 50 µg/mL: Homo sapiens, MCF7, 50 μg/ml, read-out: inhibition rate, Results (%) MCF-7
[6] = tested on: HL-60 human promyelocytic leukemia; assay: In vitro inhibition rate to tumor cells (MTT), HL-60; assay type: cell-based; details: for inhibition rate, Results (%) HL-60: 50 μg/ml; for inhibition at 50 µg/mL: Homo sapiens, HL-60, 50 μg/ml, read-out: inhibition rate, Results (%) HL-60
[7] = tested on: A-549 human lung adenocarcinoma; assay: In vitro inhibition rate to tumor cells (MTT), A-549; assay type: cell-based; details: for inhibition rate, Results (%) A-549: 50 μg/ml; for inhibition at 50 µg/mL: Homo sapiens, A549, 50 μg/ml, read-out: inhibition rate, Results (%) A-549
[8] = tested on: SMMC-7721 human hepatic carcinoma; assay: In vitro inhibition rate to tumor cells (MTT), SMMC-7721; assay type: cell-based; details: for inhibition rate, Results (%) SMMC-7721: 50 μg/ml; for inhibition at 50 µg/mL: Homo sapiens, SMMC-7721, 50 μg/ml, read-out: inhibition rate, Results (%) SMMC-7721
[9] = tested on: Hela human cervical carcinoma; assay: In vitro anti-tumor IC50 (MTT), Hela; assay type: cell-based; details: Table 4
Description: as §1, §2, §3, §4, §5, §6

[10] = tested on: LLC mouse Lewis lung carcinoma; assay: In vitro inhibition rate to tumor cells (MTT), LLC; assay type: cell-based; details: 50 μg/ml; for inhibition at 50 µg/mL: Mus musculus, Lewis lung carcinoma
HepG2 cells = assay: Cell status of HepG2 cells treated with sample (HBV screening); assay type: cell-based; details: 200 μg/ml, HepG2, four days after infection
Description: 1.5 Screening for the agents: The HepG2 cells were counted and 1.5×10^4 cells/well were seeded into a 96-well plate. After incubation overnight in an atmosphere of CO2 at 37° C., each of the experimental samples in a given concentration was added to the cells. After incubation at 37 °C for 24 hrs, the HepG2 treated with the samples were infected with vAcGFPHBVc of 100 MOI. A negative control and a positive control were also included. Four days after infection, the growth of the cells were observed, and the HBV e antigen in the supernatant was measured with the HBV e antigen diagnostic kit.

MDCK (dog kidney) cells = assay: Toxicity TC50 of the samples in MDCK cells (influenza screening); details: concentration of 50% toxicity
Hepatitis B virus (HBV) = assay type: cell-based; details: 200 μg/ml; for (Value of the positive control - Measured Value) Value of the positive control × 100%: decrease of HBeAg relative to positive control; for OD450 of HBeAg: supernatant four days after infection, positive control 1.917, negative 0.057
[11] = target: T1, HIV-1 reverse transcriptase (Human immunodeficiency virus type 1 group M subtype B, UniProt P04585); assay: Screening for the in vitro activity against the HIV-1 reverse transcriptase; assay type: biochemical; details: IC50, initial concentration 200 μg/ml
T1 construct: purchased
Description: Principle of the test: The template to which the HIV-1 reverse transcriptase interacts was covered onto the enzyme-lined template. In the optimal reaction conditions and system, HIV-1 RT will put the substrate comprising Biotin-dUTP onto the reaction template. The activity of the enzyme was measured as the amount of the integrating Biotin-dUTP in the reaction by using streptavidin-labeled horseradish peroxidase. Adding the sample to the reaction system can identify inhibitor of the enzyme.
1. HIV-1 RT: commercially available.
2. Treatment of the samples: Before use, the sample was dissolved in DMSO at a suitable concentration, then serially diluted (5×) with double distilled water, five serial dilutions per sample.
4. Methods: The diluted sample was added into the reaction buffer containing Biotin-dUTP and the genetic engineered target enzyme, and incubated in the optimal reaction conditions. A streptavidin-labeled horseradish peroxidase was added to visual the system, and OD450 was measured.

[12] = target: T2, HIV-1 proteinase (HIV-1 PR) (Human immunodeficiency virus type 1 group M subtype B, UniProt P04585); assay: Screening for in vitro activity against HIV-1 proteinase; assay type: biochemical; details: for inhibition at 0.08 µg/mL: 0.08 μg/ml; for inhibition at 0.08 µg/mL / inhibition at 0.4 µg/mL / inhibition at 2 µg/mL / inhibition at 10 µg/mL: read-out: Inhibition rate; for inhibition at 0.4 µg/mL: 0.40 μg/ml; for inhibition at 2 µg/mL: 2.0 μg/ml; for inhibition at 10 µg/mL: 10 μg/ml; for IC50: IC50, five 5× serial dilutions from 50 μg/ml; for inhibition at 50 µg/mL: read-out: Inhibition rate, 50 μg/ml
T2 construct: HIV-1 proteinase digests the fluorescent-labeled substrate; purchased
Description: Principle of the test: HIV-1 proteinase digests the fluorescent-labeled substrate in an optimal reaction condition and system. The activity of the enzyme can be reflected by the fluorescent intensity in the product of the enzyme reaction. Adding a sample into the reaction system can be used for screening the inhibitor of the enzyme.
1. HIV-1 PR: commercially available, stored at −85° C.
2. Treatment of the samples: Before use, sample was dissolved in DMSO at a suitable concentration, then serially diluted (5×) with double distilled water, five serial dilutions per sample.
3. Positive control: indinavir, purchased from […].
4. Methods: The diluted sample was added into the reaction buffer containing the fluorescent-labeled substrate. Then the genetic engineered target enzyme was added, and incubated in the optimal reaction condition. The fluorescent value was measured with a FLUO star Galaxy luminoscope.

[13] = target: T3, HIV-1 integrase (HIV-1 IN) (Human immunodeficiency virus type 1 group M subtype B, UniProt P04585); assay: Screening for the activity against HIV-1 integrase; assay type: biochemical; details: initial concentration 100 μg/ml; read-out: IC50
T3 construct: a purified HIV-1 integrase was added into each well; purchased
Description: Principle of the test: A synthetic oligonucleotide of 30 nt was used as the donor substrate. A synthetic oligonucleotide of 20 nt was used as the target substrate. A 96-well plate was covered by the donor substrate, and a purified HIV-1 integrase was added into each well. ELISA was performed to measure the product of the target DNA chain transfer. A biotin-labeled alkali phosphatase was used to visual the system. OD value was measured by an Enzyme-linked Detector. Add a sample into the reaction system for screening the inhibitor of the enzyme.
1. HIV-1 IN: commercially available.
2. Treatment of the samples: Before use, the sample was dissolved in water or DMSO at a suitable concentration, then serially diluted (5×), four serial dilutions per sample. The stock solutions of two samples were 100-fold diluted with DMSO, then 5-fold diluted, four serial dilutions per sample. Positive control: S-y, provided by Shanghai Organic Chemistry Institute.
3. The donor substrate and target substrate: synthesized by Shanghai Biological Engineering Company (Shanghai Shenggong).
4. Methods: The diluted sample was added into a 96-well plate covered by the donor substrate, and then added into the reaction buffer containing the genetic engineered target enzyme and biotin-target substrate, incubated in the optimal reaction conditions. A biotin-labeled alkali phosphatase was used to visual the system to determine the absorbance at 450 nm (OD450).

Row | SMILES | inhibition at 50 µg/mL ([1]; Table 1) [%] | inhibition at 50 µg/mL ([1]; Table 2 (repeated screening)) [%] | inhibition at 50 µg/mL ([2]; Table 1) [%] | inhibition at 50 µg/mL ([2]; Table 2 (repeated screening)) [%] | Cell status (HepG2 cells) | inhibition at 50 µg/mL ([3]; Table 1) [%] | inhibition at 50 µg/mL ([3]; Table 2 (repeated screening)) [%] | inhibition at 50 µg/mL ([5]; Table 1) [%] | inhibition at 50 µg/mL ([5]; Table 2 (repeated screening)) [%] | inhibition at 50 µg/mL ([6]; Table 1) [%] | inhibition at 50 µg/mL ([6]; Table 2 (repeated screening)) [%] | inhibition at 50 µg/mL ([7]; Table 1) [%] | inhibition at 50 µg/mL ([7]; Table 2 (repeated screening)) [%] | inhibition at 50 µg/mL ([8]; Table 1) [%] | inhibition at 50 µg/mL ([8]; Table 2 (repeated screening)) [%] | inhibition at 50 µg/mL ([10]; Table 1) [%] | inhibition at 50 µg/mL ([10]; Table 2 (repeated screening)) [%] | (Value of the positive control - Measured Value) Value of the positive control × 100% (Hepatitis B virus (HBV)) [%] | OD450 of HBeAg (Hepatitis B virus (HBV)) | IC50 [11] [µM] | also measured
1 | CCCCNC=C1CC2(O)OC3(CC2C(C)C)C(C)CCC13 (centres unmarked) [Compound 13, Curcumol n-butyl amine] |  |  |  |  |  |  |  |  |  |  |  |  |  |  |  |  |  |  |  |  | inhibition rate, Results (%) Hela ([1]; Table 1): 66.32%; inhibition rate, Results (%) Hela ([1]; Table 2 (repeated screening)): 65.92%; inhibition rate, Results (%) Bel-7402 ([2]; Table 1): 33.16%; inhibition rate, Results (%) Bel-7402 ([2]; Table 2 (repeated screening)): 30.25%; inhibition rate, Results (%) U-937 ([3]; Table 1): 51.10%; inhibition rate, Results (%) U-937 ([3]; Table 2 (repeated screening)): 45.10%; IC50 (ug/ml) against tumor cell lines, U-937 [4]: 0.98 µg/mL (≈ 3.19 µM); inhibition rate, Results (%) MCF-7 ([5]; Table 1): 54.67%; inhibition rate, Results (%) MCF-7 ([5]; Table 2 (repeated screening)): 50.36%; inhibition rate, Results (%) HL-60 ([6]; Table 1): 0.12%; inhibition rate, Results (%) HL-60 ([6]; Table 2 (repeated screening)): 0.79%; inhibition rate, Results (%) A-549 ([7]; Table 1): 7.59%; inhibition rate, Results (%) A-549 ([7]; Table 2 (repeated screening)): 3.56%; inhibition rate, Results (%) SMMC-7721 ([8]; Table 1): 3.71%; inhibition rate, Results (%) SMMC-7721 ([8]; Table 2 (repeated screening)): 0.23%; IC50 (ug/ml) against tumor cell lines, Hela [9]: 1.6 µg/mL (≈ 5.2 µM); inhibition rate, Results (%) LLC ([10]; Table 1): 0.24%; inhibition rate, Results (%) LLC ([10]; Table 2 (repeated screening)): 1.32%
2 | C=C1CC2(OC)OC3(CC2C(C)C)C(C)CCC13 (centres unmarked) [Compound 25, Curcumol methyl ether] | 81.9 | 75.5 | 5.68 | 2.03 | Poor | 86.9 | 82.4 | 9.53 | 8.12 | -2.63 | 1.23 | 13.7 | 14.2 | 0.24 | 8.32 | 4.18 | 1.02 | −31.8206 | 2.527 |  | TC50 (MDCK (dog kidney) cells): >1000 µg/mL
3 | CC(C)C1CC23OC1(O)CC(C)C2CCC3C (centres unmarked) [Compound 33, hydrogenated curcumol derivative] | 60.9 | 59.8 | 14.3 | 14.9 | Poor | 44.3 | 43.2 | 45.3 | 39.3 | 1.32 | 7.68 | 16.3 | 14.3 | -7.44 | -1.56 | 4.18 | 3.12 | 96.45 | 0.068 | > 839 | inhibition at 0.08 µg/mL [12]: 13.2%; inhibition at 0.4 µg/mL [12]: 11.4%; inhibition at 2 µg/mL [12]: 10.6%; inhibition at 10 µg/mL [12]: 1.3%; IC50 [12]: > 210 µM; inhibition at 50 µg/mL [12]: 9.14%; inhibition at 100 µg/mL [13]: < 50%
4 | CC(C)C1CC23OC1(O)CC1(CO1)C2CCC3C (centres unmarked) [Compound 47, Curcumol epoxy compound] | 83.7 | 80.8 | 2.88 | 2.35 | Poor | 86.5 | 85.4 | 65.1 | 60.5 | 10.3 | 1.96 | -12 | -7.85 | -1.43 | -3.25 | -13.2 | -14 | 80.96 | 0.365 | > 793 | inhibition at 0.08 µg/mL [12]: 6.89%; inhibition at 0.4 µg/mL [12]: 12.3%; inhibition at 2 µg/mL [12]: 12.9%; inhibition at 10 µg/mL [12]: 1.78%; IC50 [12]: > 198 µM; inhibition at 50 µg/mL [12]: 0.56%; inhibition at 100 µg/mL [13]: < 50%
